# Assay results as given in patent publication US20110028318A1, “HERBICIDAL COMPOUNDS BASED ON N-AZINYL-N'-PYRIDYLSULPHONYLUREAS” (Bayer CropScience AG, priority 2007, published 2011).
# Tests used:
# [1] = test system: Stellaria media; assay: Post-emergence herbicidal activity, STEME; assay type: in vivo; settings: dosage rate 80 g/ha, scored visually after approx. 3 weeks vs untreated controls
# Method: (§1) Seeds of monocotyledonous or dicotyledonous weed plants or crop plants are placed in sandy loam in wood fiber pots, covered with soil and grown in the greenhouse under good growth conditions. 2 to 3 weeks after sowing, the test plants are treated in the one-leaf stage. The compounds according to the invention, which are formulated as wettable powders (WP), are then sprayed onto the green plant parts in the form of an aqueous suspension or emulsion with a water application rate of 600 I/ha (converted) with addition of 0.2% of wetter. After the test plants have been left to stand in the greenhouse for approximately 3 weeks under optimal growth conditions, the activity of the preparation is scored visually in comparison with untreated controls (herbicidal activity in percent (%): 100% activity=plants have died, 0% activity=like control plants).
# [2] = test system: Amaranthus retroflexus; assay: Post-emergence herbicidal activity, AMARE; assay type: in vivo; settings: dosage rate 80 g/ha, scored visually after approx. 3 weeks vs untreated controls
# Method: as §1
# [3] = test system: Abutilon theophrasti; assay: Post-emergence herbicidal activity, ABUTH; assay type: in vivo; settings: dosage rate 80 g/ha, scored visually after approx. 3 weeks vs untreated controls
# Method: as §1
# [4] = test system: Stellaria media; assay: Pre-emergence herbicidal activity, STEME; assay type: in vivo; settings: 80 g/ha, WP formulation, scored visually after approximately 3 weeks vs untreated controls (100% = plants have died)
# Description: (§2) Seeds of monocotyledonous or dicotyledonous weed plants or crop plants are placed in sandy loam in wood fiber pots and covered with soil. The compounds according to the invention, which are formulated as wettable powders (WP) are then applied to the surface of the soil cover in the form of an aqueous suspension or emulsion with a water application rate of 600 I/ha (converted), with addition of 0.2% wetter. After the treatment, the pots are placed in the greenhouse and maintained under good growth conditions for the test plants. After approximately 3 weeks, the activity of the preparation is scored visually in comparison with untreated controls (herbicidal activity in percent (%): 100% activity=plants have died, 0% activity=like control plants).
# [5] = test system: Alopecurus myosuroides; assay: Pre-emergence herbicidal activity, ALOMY; assay type: in vivo; settings: 80 g/ha, WP formulation, scored visually after approximately 3 weeks vs untreated controls (100% = plants have died)
# Description: as §2
# [6] = test system: Alopecurus myosuroides; assay: Post-emergence herbicidal activity, ALOMY; assay type: in vivo; settings: dosage rate 80 g/ha, scored visually after approx. 3 weeks vs untreated controls
# Method: as §1
# [7] = test system: Pharbitis purpurea; assay: Post-emergence herbicidal activity, PHBPU; assay type: in vivo, Pharbitis/Ipomoea purpurea; settings: dosage rate 80 g/ha, scored visually after approx. 3 weeks vs untreated controls
# Method: as §1
# [8] = test system: Lolium multiflorum; assay: Post-emergence herbicidal activity, LOLMU; assay type: in vivo; settings: dosage rate 80 g/ha, scored visually after approx. 3 weeks vs untreated controls
# Method: as §1
# [9] = test system: Matricaria inodora; assay: Pre-emergence herbicidal activity, MATIN; assay type: in vivo; settings: 80 g/ha, WP formulation, scored visually after approximately 3 weeks vs untreated controls (100% = plants have died)
# Description: as §2
# [10] = test system: Echinochloa crus-galli; assay: Post-emergence herbicidal activity, ECHCG; assay type: in vivo; settings: dosage rate 80 g/ha, scored visually after approx. 3 weeks vs untreated controls
# Method: as §1
# [11] = test system: Viola tricolor; assay: Post-emergence herbicidal activity, VIOTR; assay type: in vivo; settings: dosage rate 80 g/ha, scored visually after approx. 3 weeks vs untreated controls
# Method: as §1
# [12] = logp; assay type: physicochemical
SMILES,herbicidal activity STEME [1] [%],herbicidal activity AMARE [2] [%],herbicidal activity ABUTH [3] [%],"herbicidal activity in percent, STEME [4] [%]","herbicidal activity in percent, ALOMY [5] [%]",herbicidal activity ALOMY [6] [%],herbicidal activity PHBPU [7] [%],herbicidal activity LOLMU [8] [%],"herbicidal activity in percent, MATIN [9] [%]",herbicidal activity ECHCG [10] [%],herbicidal activity VIOTR [11] [%],logP [12],melting point [°C]
COc1cc(OC)nc(NC(=O)NS(=O)(=O)c2ncccc2C2=NOC(C)(C)C2)n1 [Ia-13],100,90,90,80,90,90,90,90,80,90,90,,
COc1cc(OC)nc(NC(=O)NS(=O)(=O)c2ncccc2C2=NOC(C)C2)n1 (stereo not drawn) [Ia-11],100,100,90,80,90,90,90,100,80,100,90,,
"Clc1ncccc1C1=NOCC1 [XIa-1, 2-Chloro-3-(4,5-dihydroisoxazol-3-yl)pyridine]",,,,,,,,,,,,0.97,183 to 185
